# The supplement of paper PMC10307832
# Assays:
# Test in all cases: relative viability (nuclei count vs DMSO), 5 days (fraction); higher = more cells survive
# Salubrinal + OSI-027 = compound: O=C(/C=C/c1ccccc1)NC(NC(=S)Nc1cccc2cccnc12)C(Cl)(Cl)Cl [Salubrinal] + COc1cccc2cc(-c3nc([C@H]4CC[C@H](C(=O)O)CC4)n4ncnc(N)c34)[nH]c12 [OSI-027] (partner 0.5 µM)
# Procedure, shortened: (§1)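 Relative viability was taken as the ratio of nuclei in treated wells to nuclei in vehicle wells. Lung cancer cell lines in 1536-well plates received compounds by pin tool one day after seeding, either one drug alone or a fixed anchor-drug dose plus five library-drug doses (not always all listed) in √10 steps. Nuclei were counted on 4× images after 5 days of treatment, and values are medians of duplicate plates.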
# Salubrinal + AZD7762 = compound: O=C(/C=C/c1ccccc1)NC(NC(=S)Nc1cccc2cccnc12)C(Cl)(Cl)Cl [Salubrinal] + NC(=O)Nc1cc(-c2cccc(F)c2)sc1C(=O)N[C@H]1CCCNC1 [AZD7762] (partner 0.2 µM)
# Procedure, shortened: as §1
# [1] = compound: Cc1ccc2nc(NCCN)c3ncc(C)n3c2c1 + CCNC(=O)c1noc(-c2cc(C(C)C)c(O)cc2O)c1-c1ccc(CN2CCOCC2)cc1 [Luminespib] (partner 0.01 µM)
# Procedure, shortened: as §1
# [2] = compound: Cc1ccc2nc(NCCN)c3ncc(C)n3c2c1 + CS(=O)(=O)N1CCN(Cc2cc3nc(-c4cccc5[nH]ncc45)nc(N4CCOCC4)c3s2)CC1 [Pictilisib] (partner 1 µM)
# Procedure, shortened: as §1
Cell Line,relative viability (Salubrinal + OSI-027; first compound 0.08 µM),relative viability (Salubrinal + OSI-027; first compound 0.253 µM),relative viability (Salubrinal + OSI-027; first compound 0.8 µM),relative viability (Salubrinal + OSI-027; first compound 2.53 µM),relative viability (Salubrinal + OSI-027; first compound 8 µM),relative viability (Salubrinal + AZD7762; first compound 0.08 µM),relative viability (Salubrinal + AZD7762; first compound 0.253 µM),relative viability (Salubrinal + AZD7762; first compound 0.8 µM),relative viability (Salubrinal + AZD7762; first compound 2.53 µM),relative viability (Salubrinal + AZD7762; first compound 8 µM),relative viability ([1]; first compound 0.04 µM),relative viability ([1]; first compound 0.1265 µM),relative viability ([1]; first compound 0.4 µM),relative viability ([1]; first compound 1.265 µM),relative viability ([1]; first compound 4 µM),relative viability ([2]; first compound 0.04 µM),relative viability ([2]; first compound 0.1265 µM),relative viability ([2]; first compound 0.4 µM),relative viability ([2]; first compound 1.265 µM),relative viability ([2]; first compound 4 µM)
NCI-H1395,0.705,0.675,0.682,0.605,0.624,0.376,0.443,0.389,0.432,0.385,0.828,0.701,0.664,0.534,0.761,0.689,0.638,0.642,0.828,0.551
NCI-H1437,0.9,0.811,0.924,0.912,0.851,1.19,1.1,1.16,1.11,1.04,1.13,1.09,1.14,1.08,1.06,0.427,0.449,0.443,0.369,0.374
NCI-H1651,0.954,0.599,0.794,0.827,0.563,0.464,0.423,0.546,0.484,0.388,0.801,0.805,0.997,0.836,0.839,0.512,0.477,0.593,0.589,0.506
NCI-H1666,0.953,0.763,0.894,0.806,0.848,0.793,0.863,0.831,0.704,0.926,0.963,0.994,1.07,0.915,1.01,0.372,0.478,0.402,0.554,0.449
